# Experimental data taken from ChEMBL document CHEMBL3627608, “Crystal structures of human RIP2 kinase catalytic domain complexed with ATP-competitive inhibitors: Foundations for understanding inhibitor selectivity” (Bioorg Med Chem, 2015).
# Key:
# [1] = biological target: T1, Tyrosine-protein kinase Tec (Homo sapiens) (UniProt P42680); experiment: Inhibition of TEC (unknown origin) at 10 uM after 120 mins P33 radiolabeled kinase activity assay
# T1 sequence (whole entry): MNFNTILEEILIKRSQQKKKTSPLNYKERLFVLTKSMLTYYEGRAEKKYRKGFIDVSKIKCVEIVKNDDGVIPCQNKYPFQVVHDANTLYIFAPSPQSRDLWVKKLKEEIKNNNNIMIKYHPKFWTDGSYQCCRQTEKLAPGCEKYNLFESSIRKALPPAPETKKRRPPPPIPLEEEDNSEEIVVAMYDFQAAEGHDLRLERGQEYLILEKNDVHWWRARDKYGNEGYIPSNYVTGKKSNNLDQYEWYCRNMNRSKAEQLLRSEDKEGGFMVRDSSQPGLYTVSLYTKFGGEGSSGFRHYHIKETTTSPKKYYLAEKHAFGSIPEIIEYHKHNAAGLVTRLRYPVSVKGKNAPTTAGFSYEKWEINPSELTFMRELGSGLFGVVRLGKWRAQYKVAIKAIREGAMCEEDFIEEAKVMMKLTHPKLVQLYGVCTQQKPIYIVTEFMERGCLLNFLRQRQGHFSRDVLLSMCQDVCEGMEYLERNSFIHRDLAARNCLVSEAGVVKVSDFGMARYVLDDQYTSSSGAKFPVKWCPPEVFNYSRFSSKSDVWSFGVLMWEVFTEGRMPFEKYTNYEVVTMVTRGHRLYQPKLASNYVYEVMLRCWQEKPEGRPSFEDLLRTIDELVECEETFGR
# [2] = biological target: Cyclin-dependent kinase 2/cyclin A (Homo sapiens) (UniProt P24941+P20248+P78396); experiment: Inhibition of CDK2/cyclin A (unknown origin) at 10 uM after 120 mins P33 radiolabeled kinase activity assay; type: protein-complex assay
# [3] = biological target: RAF proto-oncogene serine/threonine-protein kinase (Homo sapiens) (UniProt P04049); experiment: Inhibition of RAF1 (unknown origin) at 10 uM after 120 mins P33 radiolabeled kinase activity assay
# [4] = biological target: BDNF/NT-3 growth factors receptor (Homo sapiens) (UniProt Q16620); experiment: Inhibition of TRKB (unknown origin) at 10 uM after 120 mins P33 radiolabeled kinase activity assay
# [5] = biological target: Mitogen-activated protein kinase 9 (Homo sapiens) (UniProt P45984); experiment: Inhibition of JNK2 (unknown origin) at 10 uM after 120 mins P33 radiolabeled kinase activity assay
# [6] = biological target: Cell division cycle 7-related protein kinase (Homo sapiens) (UniProt O00311); experiment: Inhibition of CDC7 (unknown origin) at 10 uM after 120 mins P33 radiolabeled kinase activity assay
# [7] = biological target: Calcium/calmodulin-dependent protein kinase type 1 (Homo sapiens) (UniProt Q14012); experiment: Inhibition of CAMK1alpha (unknown origin) at 10 uM after 120 mins P33 radiolabeled kinase activity assay
# [8] = biological target: T2, Mitogen-activated protein kinase 13 (Homo sapiens) (UniProt O15264); experiment: Inhibition of P38delta (unknown origin) at 10 uM after 120 mins P33 radiolabeled kinase activity assay
# T2 sequence (whole entry): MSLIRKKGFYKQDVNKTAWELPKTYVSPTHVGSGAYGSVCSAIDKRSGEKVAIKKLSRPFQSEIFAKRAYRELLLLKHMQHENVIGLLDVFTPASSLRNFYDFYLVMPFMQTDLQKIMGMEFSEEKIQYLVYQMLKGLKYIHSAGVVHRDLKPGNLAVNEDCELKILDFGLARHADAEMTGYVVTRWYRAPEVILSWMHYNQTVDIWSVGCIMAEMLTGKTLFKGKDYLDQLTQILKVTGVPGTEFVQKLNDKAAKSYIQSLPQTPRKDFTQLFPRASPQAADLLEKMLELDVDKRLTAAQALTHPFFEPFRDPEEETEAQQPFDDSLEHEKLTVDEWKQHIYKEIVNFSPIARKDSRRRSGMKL
# [9] = biological target: T3, Cytoplasmic tyrosine-protein kinase BMX (Homo sapiens) (UniProt P51813); experiment: Inhibition of BMX (unknown origin) at 10 uM after 120 mins P33 radiolabeled kinase activity assay
# T3 sequence (whole entry): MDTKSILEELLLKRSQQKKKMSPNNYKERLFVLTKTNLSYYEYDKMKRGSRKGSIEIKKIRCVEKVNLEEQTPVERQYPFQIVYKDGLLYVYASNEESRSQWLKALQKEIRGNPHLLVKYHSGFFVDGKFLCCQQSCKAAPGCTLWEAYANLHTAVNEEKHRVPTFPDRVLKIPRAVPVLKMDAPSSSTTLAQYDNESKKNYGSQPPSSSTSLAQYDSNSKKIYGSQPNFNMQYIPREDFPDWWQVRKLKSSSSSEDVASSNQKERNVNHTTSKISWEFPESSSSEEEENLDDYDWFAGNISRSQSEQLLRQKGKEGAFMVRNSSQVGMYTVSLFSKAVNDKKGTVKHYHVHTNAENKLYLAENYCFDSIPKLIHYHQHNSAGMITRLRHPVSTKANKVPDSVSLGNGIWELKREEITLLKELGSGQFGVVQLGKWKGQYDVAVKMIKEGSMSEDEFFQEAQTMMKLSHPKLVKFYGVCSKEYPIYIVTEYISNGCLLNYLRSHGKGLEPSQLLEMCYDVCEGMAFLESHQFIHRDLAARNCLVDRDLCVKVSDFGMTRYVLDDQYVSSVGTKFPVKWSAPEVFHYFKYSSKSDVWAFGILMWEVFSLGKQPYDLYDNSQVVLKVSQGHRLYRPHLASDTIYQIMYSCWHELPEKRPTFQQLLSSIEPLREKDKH
# [10] = biological target: Receptor tyrosine-protein kinase erbB-4 (Homo sapiens) (UniProt Q15303); experiment: Inhibition of ERBB4 (unknown origin) at 10 uM after 120 mins P33 radiolabeled kinase activity assay
# [11] = biological target: Cyclin-dependent kinase 5/CDK5 activator 1 (Homo sapiens) (UniProt Q00535+Q15078); experiment: Inhibition of CDK5/p25 (unknown origin) at 10 uM after 120 mins P33 radiolabeled kinase activity assay; type: protein-complex assay
# [12] = biological target: Mast/stem cell growth factor receptor Kit (Homo sapiens) (UniProt P10721); experiment: Inhibition of c-Kit (unknown origin) at 10 uM after 120 mins P33 radiolabeled kinase activity assay
# [13] = biological target: Receptor-interacting serine/threonine-protein kinase 2 (Homo sapiens, UniProt O43353); experiment: Inhibition of full-length FLAG-6His-TEV tagged human RIP2 expressed in Sf9 cells assessed as dissociation rate by fluorescent polarization assay
# [14] = biological target: Serine/threonine-protein kinase SIK2 (Homo sapiens) (UniProt Q9H0K1); experiment: Inhibition of SIK2 (unknown origin) at 10 uM after 120 mins P33 radiolabeled kinase activity assay
# Receptor-interacting serine/threonine-protein kinase 2, sequence (O43353 whole entry): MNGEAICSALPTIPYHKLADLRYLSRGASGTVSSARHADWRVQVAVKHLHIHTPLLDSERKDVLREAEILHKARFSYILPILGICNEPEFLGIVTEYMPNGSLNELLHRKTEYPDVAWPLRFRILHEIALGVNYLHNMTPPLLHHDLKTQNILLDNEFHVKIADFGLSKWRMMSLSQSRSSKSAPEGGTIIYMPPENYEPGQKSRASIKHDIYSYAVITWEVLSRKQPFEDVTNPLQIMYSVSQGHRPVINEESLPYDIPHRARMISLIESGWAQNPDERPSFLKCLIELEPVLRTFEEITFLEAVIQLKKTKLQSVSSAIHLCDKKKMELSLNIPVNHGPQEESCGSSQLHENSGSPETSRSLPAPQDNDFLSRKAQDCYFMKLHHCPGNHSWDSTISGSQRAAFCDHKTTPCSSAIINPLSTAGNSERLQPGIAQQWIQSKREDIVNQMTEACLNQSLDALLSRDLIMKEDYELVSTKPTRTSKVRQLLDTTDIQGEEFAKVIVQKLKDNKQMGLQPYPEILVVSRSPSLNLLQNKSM
# Cell division cycle 7-related protein kinase (Homo sapiens), sequence (O00311 whole entry, looked up): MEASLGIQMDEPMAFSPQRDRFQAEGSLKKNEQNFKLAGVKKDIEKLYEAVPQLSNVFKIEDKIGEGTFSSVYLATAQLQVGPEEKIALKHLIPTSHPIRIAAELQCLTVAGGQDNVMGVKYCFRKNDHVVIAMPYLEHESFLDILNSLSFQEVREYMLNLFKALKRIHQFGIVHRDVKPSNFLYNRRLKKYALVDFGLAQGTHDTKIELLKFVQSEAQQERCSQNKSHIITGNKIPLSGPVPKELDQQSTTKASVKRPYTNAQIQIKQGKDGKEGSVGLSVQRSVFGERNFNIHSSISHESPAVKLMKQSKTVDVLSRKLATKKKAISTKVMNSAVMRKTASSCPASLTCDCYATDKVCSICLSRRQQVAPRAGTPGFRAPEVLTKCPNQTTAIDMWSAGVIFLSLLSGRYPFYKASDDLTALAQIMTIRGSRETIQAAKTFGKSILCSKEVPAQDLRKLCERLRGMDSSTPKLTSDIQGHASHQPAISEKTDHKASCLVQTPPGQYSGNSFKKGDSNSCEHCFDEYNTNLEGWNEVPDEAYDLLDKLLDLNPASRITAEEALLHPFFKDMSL
# Cyclin-dependent kinase 5/CDK5 activator 1 (Homo sapiens), sequence (Q00535 whole entry): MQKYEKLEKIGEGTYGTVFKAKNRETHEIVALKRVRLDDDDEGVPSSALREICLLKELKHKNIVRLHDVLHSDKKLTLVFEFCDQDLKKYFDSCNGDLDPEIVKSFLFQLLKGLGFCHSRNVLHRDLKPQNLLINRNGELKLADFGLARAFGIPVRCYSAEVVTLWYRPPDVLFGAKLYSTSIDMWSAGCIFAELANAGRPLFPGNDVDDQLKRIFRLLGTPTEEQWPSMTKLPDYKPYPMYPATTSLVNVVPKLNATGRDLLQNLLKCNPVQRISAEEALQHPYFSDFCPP
# Cyclin-dependent kinase 5/CDK5 activator 1 (Homo sapiens), sequence (Q15078 99-307 partner limits assumed): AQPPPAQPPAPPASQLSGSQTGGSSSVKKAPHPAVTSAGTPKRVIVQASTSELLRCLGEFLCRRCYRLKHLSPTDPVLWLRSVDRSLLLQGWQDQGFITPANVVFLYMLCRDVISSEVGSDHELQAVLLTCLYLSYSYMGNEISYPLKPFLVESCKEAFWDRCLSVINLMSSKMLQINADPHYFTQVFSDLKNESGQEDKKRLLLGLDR
# BDNF/NT-3 growth factors receptor (Homo sapiens), sequence (Q16620 32-822 limits assumed): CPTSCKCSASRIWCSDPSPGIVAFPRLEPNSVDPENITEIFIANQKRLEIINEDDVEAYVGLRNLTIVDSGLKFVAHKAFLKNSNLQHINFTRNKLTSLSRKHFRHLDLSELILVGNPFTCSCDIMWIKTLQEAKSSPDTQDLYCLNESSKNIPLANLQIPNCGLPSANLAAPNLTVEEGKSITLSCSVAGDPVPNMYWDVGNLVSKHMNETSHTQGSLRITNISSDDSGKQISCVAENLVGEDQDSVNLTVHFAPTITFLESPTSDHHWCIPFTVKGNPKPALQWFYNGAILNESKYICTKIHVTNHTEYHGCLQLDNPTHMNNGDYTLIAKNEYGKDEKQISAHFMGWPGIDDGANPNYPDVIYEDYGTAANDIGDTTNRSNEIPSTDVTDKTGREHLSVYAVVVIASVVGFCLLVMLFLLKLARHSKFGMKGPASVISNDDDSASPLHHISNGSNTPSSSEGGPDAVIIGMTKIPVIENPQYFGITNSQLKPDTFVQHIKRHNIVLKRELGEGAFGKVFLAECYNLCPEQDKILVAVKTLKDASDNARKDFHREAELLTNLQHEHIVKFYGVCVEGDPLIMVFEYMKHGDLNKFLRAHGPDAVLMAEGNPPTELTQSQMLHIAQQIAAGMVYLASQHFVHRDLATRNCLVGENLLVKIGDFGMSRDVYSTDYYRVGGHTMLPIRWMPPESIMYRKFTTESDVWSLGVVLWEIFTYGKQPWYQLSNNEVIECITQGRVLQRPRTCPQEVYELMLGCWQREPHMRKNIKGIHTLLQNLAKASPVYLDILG
# Mitogen-activated protein kinase 9 (Homo sapiens), sequence (P45984 whole entry, looked up): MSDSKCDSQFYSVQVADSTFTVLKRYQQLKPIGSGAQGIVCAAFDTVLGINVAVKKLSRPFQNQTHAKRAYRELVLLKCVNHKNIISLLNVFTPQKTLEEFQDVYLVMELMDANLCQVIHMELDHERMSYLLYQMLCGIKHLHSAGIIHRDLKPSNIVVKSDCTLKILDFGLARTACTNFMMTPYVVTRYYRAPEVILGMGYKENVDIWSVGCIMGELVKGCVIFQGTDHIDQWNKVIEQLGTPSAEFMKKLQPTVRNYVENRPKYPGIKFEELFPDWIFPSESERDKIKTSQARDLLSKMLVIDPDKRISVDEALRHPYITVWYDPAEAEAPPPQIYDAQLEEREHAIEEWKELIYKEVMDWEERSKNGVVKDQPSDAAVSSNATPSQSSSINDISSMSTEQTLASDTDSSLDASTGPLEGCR
# Receptor tyrosine-protein kinase erbB-4 (Homo sapiens), sequence (Q15303 whole entry): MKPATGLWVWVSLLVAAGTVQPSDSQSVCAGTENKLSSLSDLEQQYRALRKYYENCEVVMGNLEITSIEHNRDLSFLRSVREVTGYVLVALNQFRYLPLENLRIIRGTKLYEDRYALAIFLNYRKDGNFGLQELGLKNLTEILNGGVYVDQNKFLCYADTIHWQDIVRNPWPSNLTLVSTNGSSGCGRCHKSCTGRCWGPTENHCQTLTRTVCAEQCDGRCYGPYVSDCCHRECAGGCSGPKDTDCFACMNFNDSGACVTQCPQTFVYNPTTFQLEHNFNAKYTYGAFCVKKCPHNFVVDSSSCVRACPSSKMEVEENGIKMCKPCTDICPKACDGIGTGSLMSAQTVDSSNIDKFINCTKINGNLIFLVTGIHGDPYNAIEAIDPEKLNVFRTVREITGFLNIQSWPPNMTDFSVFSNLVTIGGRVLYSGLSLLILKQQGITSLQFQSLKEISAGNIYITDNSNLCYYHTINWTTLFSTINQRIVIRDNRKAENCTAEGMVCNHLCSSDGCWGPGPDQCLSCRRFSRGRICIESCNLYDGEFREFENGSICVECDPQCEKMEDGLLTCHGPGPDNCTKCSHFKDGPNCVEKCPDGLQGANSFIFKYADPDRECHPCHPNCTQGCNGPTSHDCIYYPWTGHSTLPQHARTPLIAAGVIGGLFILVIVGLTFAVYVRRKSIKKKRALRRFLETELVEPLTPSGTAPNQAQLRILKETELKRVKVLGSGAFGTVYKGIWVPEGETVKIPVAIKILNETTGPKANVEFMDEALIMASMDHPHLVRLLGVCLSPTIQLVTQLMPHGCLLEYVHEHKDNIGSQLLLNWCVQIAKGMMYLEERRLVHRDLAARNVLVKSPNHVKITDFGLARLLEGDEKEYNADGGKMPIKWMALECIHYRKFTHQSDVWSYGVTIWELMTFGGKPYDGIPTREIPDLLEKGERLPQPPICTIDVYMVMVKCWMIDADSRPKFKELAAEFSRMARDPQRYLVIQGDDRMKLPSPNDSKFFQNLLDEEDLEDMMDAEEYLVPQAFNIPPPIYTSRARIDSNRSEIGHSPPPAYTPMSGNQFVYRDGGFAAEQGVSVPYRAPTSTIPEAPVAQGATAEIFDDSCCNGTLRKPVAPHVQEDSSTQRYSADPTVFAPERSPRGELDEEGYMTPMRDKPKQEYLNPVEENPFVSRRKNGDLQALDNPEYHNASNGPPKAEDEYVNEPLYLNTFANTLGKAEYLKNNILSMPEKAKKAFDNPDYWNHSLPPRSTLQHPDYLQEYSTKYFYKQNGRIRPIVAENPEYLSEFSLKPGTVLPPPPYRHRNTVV
# Calcium/calmodulin-dependent protein kinase type 1 (Homo sapiens), sequence (Q14012 whole entry, looked up): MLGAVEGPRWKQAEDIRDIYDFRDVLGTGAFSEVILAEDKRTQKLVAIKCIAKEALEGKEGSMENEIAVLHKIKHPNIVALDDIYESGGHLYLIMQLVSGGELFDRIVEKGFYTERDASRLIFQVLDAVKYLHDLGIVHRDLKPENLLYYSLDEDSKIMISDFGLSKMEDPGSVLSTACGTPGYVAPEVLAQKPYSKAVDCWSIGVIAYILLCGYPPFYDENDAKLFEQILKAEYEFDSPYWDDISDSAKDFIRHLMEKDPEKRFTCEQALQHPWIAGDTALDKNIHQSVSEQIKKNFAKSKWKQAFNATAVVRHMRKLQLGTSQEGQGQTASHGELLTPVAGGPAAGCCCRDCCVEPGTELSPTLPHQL
inhibition [1] [%],inhibition [2] [%],inhibition [3] [%],inhibition [4] [%],inhibition [5] [%],inhibition [6] [%],inhibition [7] [%],inhibition [8] [%],inhibition [9] [%],inhibition [10] [%],inhibition [11] [%],inhibition [12] [%],K [13] [s⁻¹],inhibition [14] [%],Structure (SMILES)
89.2,62.9,100,61.5,13.5,9.73,96.3,2,98,98.5,92.6,77.7,0.000147,97.2,CS(=O)(=O)c1cccc(Nc2nccc(-c3sc(N4CCOCC4)nc3-c3cccc(NS(=O)(=O)c4c(F)cccc4F)c3)n2)c1
5.53,-6.73,41.5,4.41,9.13,6.05,2.42,3.01,13.9,1.69,1.93,5.79,0.12,17,COCCNC(=O)c1ccc2c(c1)nc(-c1cnc(-c3ccc(Cl)cc3)[nH]1)n2CCOC
3.88,6.27,98.8,96.7,79.8,5.38,15,93.4,15.5,-3.92,49.4,84.9,0.000135,19.2,CC(C)(C)c1cc(NC(=O)Nc2ccc(Oc3ccncc3)cc2)no1
